Data on 23 compounds can be found in patent US11267825B2 (AICURIS GMBH & CO. KG, priority 2017, dated 2022).

In experiment [1] the target is HBV core protein (UniProt P03146). In kind it is biochemical. As to conditions: read-out: Assembly Activity (IC50); BODIPY-FL labelled core protein, assembly started with NaCl, read after 6 min. As for the experimental part:
Biochemical Capsid Assembly Assay
The screening for assembly effector activity was done based on a fluorescence quenching assay published by Zlotnick et al. (2007). The C-terminal truncated core protein containing 149 amino acids of the N-terminal assembly domain was fused to a unique cysteine residue at position 150 and was expressed in E. coli using the pET expression system (Merck Chemicals, Darmstadt). Purification of core dimer protein was performed using a sequence of size exclusion chromatography steps. In brief, the cell pellet from 1 L BL21 (DE3) Rosetta2 culture expressing the coding sequence of core protein cloned NdeI/XhoI into expression plasmid pET21b was treated for 1 h on ice with a native lysis buffer (Qproteome Bacterial Protein Prep Kit; Qiagen, Hilden). After a centrifugation step the supernatant was precipitated during 2 h stirring on ice with 0.23 g/ml of solid ammonium sulfate. Following further centrifugation the resulting pellet was resolved in buffer A (100 mM Tris, pH 7.5; 100 mM NaCl; 2 mM DTT) and was subsequently loaded onto a buffer A equilibrated CaptoCore 700 column (GE HealthCare, Frankfurt). The column flow through containing the assembled HBV capsid was dialyzed against buffer N (50 mM NaHCO3 pH 9.6; 5 mM DTT) before urea was added to a final concentration of 3M to dissociate the capsid into core dimers for 1.5 h on ice. The protein solution was then loaded onto a 1 L Sephacryl S300 column. After elution with buffer N core dimer containing fractions were identified by SDS-PAGE and subsequently pooled and dialyzed against 50 mM HEPES pH 7.5; 5 mM DTT. To improve the assembly capacity of the purified core dimers a second round of assembly and disassembly starting with the addition of 5 M NaCl and including the size exclusion chromatography steps described above was performed. From the last chromatography step core dimer containing fractions were pooled and stored in aliquots at concentrations between 1.5 to 2.0 mg/ml at −80° C.
Immediately before labelling the core protein was reduced by adding freshly prepared DTT in a final concentration of 20 mM. After 40 min incubation on ice storage buffer and DTT was removed using a Sephadex G-25 column (GE HealthCare, Frankfurt) and 50 mM HEPES, pH 7.5. For labelling 1.6 mg/ml core protein was incubated at 4° C. and darkness overnight with BODIPY-FL maleimide (Invitrogen, Karlsruhe) in a final concentration of 1 mM. After labelling the free dye was removed by an additional desalting step using a Sephadex G-25 column. Labelled core dimers were stored in aliquots at 4° C. In the dimeric state the fluorescence signal of the labelled core protein is high and is quenched during the assembly of the core dimers to high molecular capsid structures. The screening assay was performed in black 384 well microtiter plates in a total assay volume of 10 μl using 50 mM HEPES pH 7.5 and 1.0 to 2.0 μM labelled core protein. Each screening compound was added in 8 different concentrations using a 0.5 log-unit serial dilution starting at a final concentration of 100 μM, 31.6 μM or 10 μM. In any case the DMSO concentration over the entire microtiter plate was 0.5%. The assembly reaction was started by the injection of NaCl to a final concentration of […] which induces the assembly process to approximately 25% of the maximal quenched signal. 6 min after starting the reaction the fluorescence signal was measured using a Clariostar plate reader (BMG Labtech, Ortenberg) with an excitation of 477 nm and an emission of 525 nm. As 100% and 0% assembly control HEPES buffer containing 2.5 M and 0 M NaCl was used. Experiments were performed thrice in triplicates. EC50 values were calculated by non-linear regression analysis using the Graph Pad Prism 6 software (GraphPad Software, La Jolla, USA).

For experiment [2], the system named is HBV. Kind of experiment: Determination of HBV DNA from the supernatants of HepAD38 cells (anti-HBV activity). In kind it is cell-based, hepatitis B virus. To be noted: Hepatitis B virus, 144 h; HBV DNA in HepAD38 supernatant at day 6; read-out: Cell Activity (EC50). A digest of the protocol: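 HepAD38 cells (60,000/well) were treated with half-log compound dilutions in tetracycline-free medium to induce HBV production. On day 6, HBV DNA was purified from filtered supernatant and quantified by real-time PCR against plasmid standards. EC50 values came from non-linear regression of relative copy numbers, typically from three experiments in triplicate.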

HBV core protein, sequence (P03146 whole entry, looked up): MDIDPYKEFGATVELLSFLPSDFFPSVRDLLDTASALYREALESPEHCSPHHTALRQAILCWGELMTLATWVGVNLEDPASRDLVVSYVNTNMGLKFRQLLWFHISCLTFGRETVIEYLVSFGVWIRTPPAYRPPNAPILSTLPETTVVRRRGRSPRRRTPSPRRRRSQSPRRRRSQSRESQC

As usually defined, the IC50 is the concentration at which inhibition is half-maximal. The EC50 is the concentration giving half of the maximal effect. As to `CC(=O)N1CCOCC1CNc1nc2c(s1)CN(C(=O)c1cc3ccccc3[nH]1)CC2` (stereo not shown) [Example 232, 1-[3-({[5-(1H-indole-2-carbonyl)-4H,5H,6H,7H-[1,3]thiazolo[5,4-c]pyridin-2-yl]amino}methyl)morpholin-4-yl]ethan-1-one], the half-inhibitory concentration (IC50) in experiment [1] lay within 5 to 10 µM. Besides, the 50% effective concentration (EC50) in experiment [2] was under 1 µM.

Turning to `CN1CCN(CCNc2nc3c(s2)CN(C(=O)c2cc4ccccc4[nH]2)CC3)CC1` [Example 181, 5-(1H-indole-2-carbonyl)-N-[2-(4-methylpiperazin-1-yl)ethyl]-4H,5H,6H,7H-[1,3]thiazolo[5,4-c]pyridin-2-amine], the IC50 in experiment [1] was under 5 µM. Besides, the half-maximal effective concentration (EC50) in experiment [2] lay in the range of 1 to 10 µM.

Consider `CC(C)[C@H](N)C(=O)OCC1(CNc2nc3c(s2)CN(C(=O)c2cc4c(Cl)cc(F)cc4[nH]2)CC3)CC1` [Example 229, [1-({[5-(4-chloro-6-fluoro-1H-indole-2-carbonyl)-4H,5H,6H,7H-[1,3]thiazolo[5,4-c]pyridin-2-yl]amino}methyl)cyclopropyl]methyl (2S)-2-amino-3-methylbutanoate], for which the concentration for half-maximal inhibition (IC50) in experiment [1] was under 5 µM. Moreover, in experiment [2], the concentration giving a half-maximal response (EC50) is under 1 µM.

On to `O=C(c1cc2ccccc2[nH]1)N1CCc2nc(CNC3CCOC3)sc2C1` (stereo not shown) [Example 40, N-{[5-(1H-indole-2-carbonyl)-4H,5H,6H,7H-[1,3]thiazolo[5,4-c]pyridin-2-yl]methyl}oxolan-3-amine], for which the IC50 in experiment [1] lay in the range of 5 to 10 µM. Besides, the half-maximal effective concentration (EC50) in experiment [2] is 1 to 10 µM.

Take `O=C(c1cc2c(F)cc(F)cc2[nH]1)N1CCc2nc(NCC3(O)CCC3)sc2C1` [Example 314, 1-({[5-(4,6-difluoro-1H-indole-2-carbonyl)-4H,5H,6H,7H-[1,3]thiazolo[5,4-c]pyridin-2-yl]amino}methyl)cyclobutan-1-ol]: the IC50 in experiment [1] is under 5 µM. For the same compound, in experiment [2], the EC50 was under 1 µM.

As for `CC1CC1C(=O)Nc1nc2c(s1)CN(C(=O)c1cc3ccccc3[nH]1)CC2` (stereo not shown) [Example 268, N-[5-(1H-indole-2-carbonyl)-4H,5H,6H,7H-[1,3]thiazolo[5,4-c]pyridin-2-yl]-2-methylcyclopropane-1-carboxamide], in experiment [1], the IC50 fell in the range of 5 to 10 µM. Moreover, the EC50 in experiment [2] is under 1 µM.

Consider `CC(F)(F)c1cccc2[nH]c(C(=O)N3CCc4nc(NC(=O)C5CCOCC5)sc4C3)cc12` [Example 399, N-{5-[4-(1,1-difluoroethyl)-1H-indole-2-carbonyl]-4H,5H,6H,7H-[1,3]thiazolo[5,4-c]pyridin-2-yl}oxane-4-carboxamide], for which, in experiment [1], the IC50 was under 5 µM. Further, the concentration giving a half-maximal response (EC50) in experiment [2] lay within 1 to 10 µM.

Regarding `Cc1nc2c(s1)CN(C(=O)c1cc3cc(F)c(F)cc3[nH]1)CC2` [Example 164], the IC50 in experiment [1] was under 5 µM. Moreover, the EC50 in experiment [2] was under 1 µM.

On to `CN(C)CC(=O)Nc1nc2c(s1)CN(C(=O)c1cc3ccccc3[nH]1)CC2` [Example 62, 2-(dimethylamino)-N-[5-(1H-indole-2-carbonyl)-4H,5H,6H,7H-[1,3]thiazolo[5,4-c]pyridin-2-yl]acetamide], for which, in experiment [1], the IC50 was in the range of 5 to 10 µM. For the same compound, in experiment [2], the EC50 is under 1 µM.

For `Cc1cc(C)c2cc(C(=O)N3CCc4nc(N)sc4C3)[nH]c2c1` [Example 138, 5-(4,6-dimethyl-1H-indole-2-carbonyl)-4H,5H,6H,7H-[1,3]thiazolo[5,4-c]pyridin-2-amine], the half-inhibitory concentration (IC50) in experiment [1] is under 5 µM. In experiment [2], the EC50 is 1 to 10 µM.

For `O=C(c1cc2c(Cl)cc(F)cc2[nH]1)N1CCc2nc(NCC3(O)CCC3)sc2C1` [Example 313, 1-({[5-(4-chloro-6-fluoro-1H-indole-2-carbonyl)-4H,5H,6H,7H-[1,3]thiazolo[5,4-c]pyridin-2-yl]amino}methyl)cyclobutan-1-ol], in experiment [1], the 50% inhibitory concentration (IC50) is under 5 µM. The EC50 in experiment [2] was under 1 µM.

`Nc1nc2c(s1)CN(C(=O)c1cc3cc(Cl)c(Cl)cc3[nH]1)CC2` [Example 135, 5-(5,6-dichloro-1H-indole-2-carbonyl)-4H,5H,6H,7H-[1,3]thiazolo[5,4-c]pyridin-2-amine]: the IC50 in experiment [1] is 5 to 10 µM. For the same compound, the EC50 in experiment [2] is 1 to 10 µM.

As to `Nc1nc2c(s1)CN(C(=O)c1cc3ccc(Cl)c(Cl)c3[nH]1)CC2` [Example 148, 5-(6,7-dichloro-1H-indole-2-carbonyl)-4H,5H,6H,7H-[1,3]thiazolo[5,4-c]pyridin-2-amine], the IC50 in experiment [1] is under 5 µM. Besides, the EC50 in experiment [2] lay in the range of 1 to 10 µM.

As for `CC(C)(CO)Nc1nc2c(s1)CN(C(=O)c1cc3ccccc3[nH]1)CC2` [Example 68, 2-{[5-(1H-indole-2-carbonyl)-4H,5H,6H,7H-[1,3]thiazolo[5,4-c]pyridin-2-yl]amino}-2-methylpropan-1-ol], the half-inhibitory concentration (IC50) in experiment [1] was under 5 µM. In addition, the concentration for a half-maximal effect (EC50) in experiment [2] is under 1 µM.

In the case of `O=C(c1cc2ccccc2[nH]1)N1CCc2nc(NS(=O)(=O)C3CC3)sc2C1` [Example 6, N-[5-(1H-indole-2-carbonyl)-4H,5H,6H,7H-[1,3]thiazolo[5,4-c]pyridin-2-yl]cyclopropanesulfonamide], in experiment [1], the IC50 is under 100 µM. The concentration for a half-maximal effect (EC50) in experiment [2] was under 1 µM.

In the case of `Nc1nc2c(s1)CN(C(=O)c1cc3c(Cl)cc(Cl)cc3[nH]1)CC2` [Example 168, 5-(4,6-dichloro-1H-indole-2-carbonyl)-4H,5H,6H,7H-[1,3]thiazolo[5,4-c]pyridin-2-amine], the IC50 in experiment [1] was under 5 µM. In experiment [2], the concentration giving a half-maximal response (EC50) was under 1 µM.

Turning to `O=C(c1cc2ccccc2[nH]1)N1CCc2nc(NCCO)sc2C1` [Example 157, 2-{[5-(1H-indole-2-carbonyl)-4H,5H,6H,7H-[1,3]thiazolo[5,4-c]pyridin-2-yl]amino}ethan-1-ol], in experiment [1], the 50% inhibitory concentration (IC50) is under 5 µM. Also, the EC50 in experiment [2] was under 1 µM.

In the case of `O=C(Nc1nc2c(s1)CN(C(=O)c1cc3c(Cl)cccc3[nH]1)CC2)C1CCOCC1` [Example 316, N-[5-(4-chloro-1H-indole-2-carbonyl)-4H,5H,6H,7H-[1,3]thiazolo[5,4-c]pyridin-2-yl]oxane-4-carboxamide], the half-inhibitory concentration (IC50) in experiment [1] was under 5 µM. The EC50 in experiment [2] is under 1 µM.

Consider `CNC(=O)Nc1nc2c(s1)CN(C(=O)c1cc3ccccc3[nH]1)CC2` [Example 28, 1-[5-(1H-indole-2-carbonyl)-4H,5H,6H,7H-[1,3]thiazolo[5,4-c]pyridin-2-yl]-3-methylurea], for which the IC50 in experiment [1] is under 5 µM. In experiment [2], the EC50 is under 1 µM.

As for `CC(C)(CC(=O)Nc1nc2c(s1)CN(C(=O)c1cc3ccccc3[nH]1)CC2)C1CC1` [Example 261, 3-cyclopropyl-N-[5-(1H-indole-2-carbonyl)-4H,5H,6H,7H-[1,3]thiazolo[5,4-c]pyridin-2-yl]-3-methylbutanamide], in experiment [1], the concentration for half-maximal inhibition (IC50) is under 100 µM. In experiment [2], the EC50 is under 1 µM.

Turning to `Nc1nc2c(s1)CN(C(=O)c1cc3c(Br)c(F)ccc3[nH]1)CC2` [Example 130, 5-(4-bromo-5-fluoro-1H-indole-2-carbonyl)-4H,5H,6H,7H-[1,3]thiazolo[5,4-c]pyridin-2-amine], the concentration for half-maximal inhibition (IC50) in experiment [1] was under 100 µM. Further, in experiment [2], the concentration giving a half-maximal response (EC50) lay within 1 to 10 µM.

Turning to `N#Cc1cc(F)cc2[nH]c(C(=O)N3CCc4nc(NCC5CCOC5)sc4C3)cc12` (stereo not shown) [Example 103, 5-(4-cyano-6-fluoro-1H-indole-2-carbonyl)-N-[(oxolan-3-yl)methyl]-4H,5H,6H,7H-[1,3]thiazolo[5,4-c]pyridin-2-amine], the IC50 in experiment [1] was in the range of 5 to 10 µM. In addition, in experiment [2], the half-maximal effective concentration (EC50) was under 1 µM.

Turning to `CC(C)(C)CC(=O)Nc1nc2c(s1)CN(C(=O)c1cc3ccccc3[nH]1)CC2` [Example 26, N-[5-(1H-indole-2-carbonyl)-4H,5H,6H,7H-[1,3]thiazolo[5,4-c]pyridin-2-yl]-3,3-dimethylbutanamide], the IC50 in experiment [1] lay in the range of 5 to 10 µM. The EC50 in experiment [2] was under 1 µM.
